{"source": "paper PMC5218480", "about": "(PLoS ONE, 2017)", "test_system": "MV-4-11 cells", "assay": "Gene expression microarray analysis (Affymetrix PrimeView) and GSEA", "format": "cell-based, human", "parameters": "RFU PODN (11730768_x_at) / Fold change /veh PODN (11730768_x_at) / RFU LINC00158 (11744669_a_at) / Fold change /veh LINC00158 (11744669_a_at) / RFU DUSP10 (11751237_a_at) / Fold change /veh DUSP10 (11751237_a_at) / RFU ID3 (11757404_x_at) / Fold change /veh ID3 (11757404_x_at) / RFU PLEKHG5 (11737974_s_at) / Fold change /veh PLEKHG5 (11737974_s_at) / RFU LRRC4B (11730491_at) / Fold change /veh LRRC4B (11730491_at) / RFU GIMAP4 (11747438_a_at) / Fold change /veh GIMAP4 (11747438_a_at) / RFU KRT8 (11758183_x_at) / Fold change /veh KRT8 (11758183_x_at) / RFU CNN1 (11734310_a_at) / Fold change /veh CNN1 (11734310_a_at) / RFU VPS37D (11726825_at) / Fold change /veh VPS37D (11726825_at) / RFU C10orf10 (11716522_x_at) / Fold change /veh C10orf10 (11716522_x_at) / RFU KIR2DL2 /// KIR2DL4 /// KIR2DL5A /// KIR2DL5B /// KIR2DS1 /// KIR2DS2 /// KIR2DS3 /// KIR2DS4 /// KIR3DL3 /// KIR3DL3 /// KIR3DS1 (11738374_at) / Fold change /veh KIR2DL2 /// KIR2DL4 /// KIR2DL5A /// KIR2DL5B /// KIR2DS1 /// KIR2DS2 /// KIR2DS3 /// KIR2DS4 /// KIR3DL3 /// KIR3DL3 /// KIR3DS1 (11738374_at) / RFU C1QL1 (11718748_at) / Fold change /veh C1QL1 (11718748_at) / RFU TMPRSS4 (11747572_a_at) / Fold change /veh TMPRSS4 (11747572_a_at) / RFU HAMP (11756126_x_at) / Fold change /veh HAMP (11756126_x_at) / RFU RNFT2 (11725882_a_at) / Fold change /veh RNFT2 (11725882_a_at) / RFU NR4A2 (11747474_a_at) / Fold change /veh NR4A2 (11747474_a_at) / RFU ABCC12 (11746883_a_at) / Fold change /veh ABCC12 (11746883_a_at) / RFU TMEM136 (11760407_x_at) / Fold change /veh TMEM136 (11760407_x_at) / RFU CLDN22 /// WWC2 (11732394_at) / Fold change /veh CLDN22 /// WWC2 (11732394_at) / RFU HLA-DPB1 (11760878_x_at) / Fold change /veh HLA-DPB1 (11760878_x_at) / RFU SPINT1 (11716480_a_at) / Fold change /veh SPINT1 (11716480_a_at) / RFU GAP43 (11754022_s_at) / Fold change /veh GAP43 (11754022_s_at) / RFU A4GNT (11735810_at) / Fold change /veh A4GNT (11735810_at) / RFU PRB3 (11715151_x_at) / Fold change /veh PRB3 (11715151_x_at) / RFU TUBB4B (11761932_at) / Fold change /veh TUBB4B (11761932_at) / RFU CAPN14 (11732068_a_at) / Fold change /veh CAPN14 (11732068_a_at) / RFU TMCC2 (11721928_a_at) / Fold change /veh TMCC2 (11721928_a_at) / RFU IRGQ (11745062_a_at) / Fold change /veh IRGQ (11745062_a_at) / RFU FAM174B (11720279_a_at) / Fold change /veh FAM174B (11720279_a_at) / RFU TMPRSS4 (11748680_a_at) / Fold change /veh TMPRSS4 (11748680_a_at) / RFU FAM212B (11763350_a_at) / Fold change /veh FAM212B (11763350_a_at) / RFU PLEKHG5 (11743358_a_at) / Fold change /veh PLEKHG5 (11743358_a_at) / RFU ZSCAN30 (11745921_a_at) / Fold change /veh ZSCAN30 (11745921_a_at) / RFU CMKLR1 (11741424_a_at) / Fold change /veh CMKLR1 (11741424_a_at) / RFU LOC101060620 /// MAPK8IP1 (11723275_at) / Fold change /veh LOC101060620 /// MAPK8IP1 (11723275_at) / RFU SPTSSB (11747773_x_at) / Fold change /veh SPTSSB (11747773_x_at) / RFU PRSS12 (11739890_at) / Fold change /veh PRSS12 (11739890_at) / RFU BIN1 (11741810_x_at) / Fold change /veh BIN1 (11741810_x_at) / RFU WNT11 (11732464_a_at) / Fold change /veh WNT11 (11732464_a_at) / RFU C10orf10 (11716521_a_at) / Fold change /veh C10orf10 (11716521_a_at) / RFU C5orf56 (11738089_at) / Fold change /veh C5orf56 (11738089_at) / RFU CYB561 (11721691_x_at) / Fold change /veh CYB561 (11721691_x_at) / RFU ANKRD19P (11752326_a_at) / Fold change /veh ANKRD19P (11752326_a_at) / RFU OR2T12 /// OR2T33 /// OR2T8 (11738714_s_at) / Fold change /veh OR2T12 /// OR2T33 /// OR2T8 (11738714_s_at) / RFU VCAN (11748164_a_at) / Fold change /veh VCAN (11748164_a_at) / RFU JSRP1 (11732532_at) / Fold change /veh JSRP1 (11732532_at) / RFU KRTAP10-11 (11738290_x_at) / Fold change /veh KRTAP10-11 (11738290_x_at) / RFU MYO3A (11730013_a_at) / Fold change /veh MYO3A (11730013_a_at) / RFU EBF3 (11725865_a_at) / Fold change /veh EBF3 (11725865_a_at) / RFU CAMK2N1 (11719241_x_at) / Fold change /veh CAMK2N1 (11719241_x_at) / RFU C5orf56 (11738088_a_at) / Fold change /veh C5orf56 (11738088_a_at) / RFU OLFML3 (11715873_a_at) / Fold change /veh OLFML3 (11715873_a_at) / RFU LOC100653217 /// NTM (11731650_a_at) / Fold change /veh LOC100653217 /// NTM (11731650_a_at) / RFU MAPK11 (11762145_a_at) / Fold change /veh MAPK11 (11762145_a_at) / RFU FIZ1 (11724087_x_at) / Fold change /veh FIZ1 (11724087_x_at) / RFU OASL (11726364_x_at) / Fold change /veh OASL (11726364_x_at) / RFU SOX15 (11748057_x_at) / Fold change /veh SOX15 (11748057_x_at) / RFU CD79A (11719716_a_at) / Fold change /veh CD79A (11719716_a_at) / RFU HIST1H1D (11736915_at) / Fold change /veh HIST1H1D (11736915_at) / RFU CASKIN2 (11723855_a_at) / Fold change /veh CASKIN2 (11723855_a_at) / RFU LOC730098 (11760151_x_at) / Fold change /veh LOC730098 (11760151_x_at) / RFU OR4N2 (11742367_at) / Fold change /veh OR4N2 (11742367_at) / RFU PRRT2 (11749266_a_at) / Fold change /veh PRRT2 (11749266_a_at) / RFU SNX32 (11753110_a_at) / Fold change /veh SNX32 (11753110_a_at) / RFU CDHR5 (11726645_a_at) / Fold change /veh CDHR5 (11726645_a_at) / RFU RCAN1 (11760418_a_at) / Fold change /veh RCAN1 (11760418_a_at) / RFU FAM167A (11723789_a_at) / Fold change /veh FAM167A (11723789_a_at) / RFU FAM26E (11764081_at) / Fold change /veh FAM26E (11764081_at) / RFU ISYNA1 (11749810_s_at) / Fold change /veh ISYNA1 (11749810_s_at) / RFU ACY1 (11761880_at) / Fold change /veh ACY1 (11761880_at) / RFU 11764098_at / Fold change /veh 11764098_at / RFU SAMD14 (11745864_x_at) / Fold change /veh SAMD14 (11745864_x_at) / RFU NPB (11741838_a_at) / Fold change /veh NPB (11741838_a_at) / RFU TMPRSS6 (11731388_a_at) / Fold change /veh TMPRSS6 (11731388_a_at) / RFU KRTAP10-2 (11738614_at) / Fold change /veh KRTAP10-2 (11738614_at) / RFU ARHGAP8 /// PRR5-ARHGAP8 (11727945_x_at) / Fold change /veh ARHGAP8 /// PRR5-ARHGAP8 (11727945_x_at) / RFU KRTAP5-7 /// NADSYN1 (11734609_at) / Fold change /veh KRTAP5-7 /// NADSYN1 (11734609_at) / RFU RASL12 (11751679_a_at) / Fold change /veh RASL12 (11751679_a_at) / RFU CDKN2B (11736163_a_at) / Fold change /veh CDKN2B (11736163_a_at) / RFU PRF1 (11729649_at) / Fold change /veh PRF1 (11729649_at) / RFU, ZNF638 /// ZNF638-IT1 / Fold change vs veh, ZNF638 /// ZNF638-IT1 / RFU, PANK3 / Fold change vs veh, PANK3 / RFU, SH3YL1 / Fold change vs veh, SH3YL1 / RFU, ZEB2 / Fold change vs veh, ZEB2 / RFU, NRIP1 / Fold change vs veh, NRIP1 / RFU, PTTG1IP / Fold change vs veh, PTTG1IP / RFU, CAPN2 / Fold change vs veh, CAPN2 / RFU, MED14 / Fold change vs veh, MED14 / RFU, SNORA58 / Fold change vs veh, SNORA58 / RFU, C1orf63 / Fold change vs veh, C1orf63 / RFU, LRRFIP1 / Fold change vs veh, LRRFIP1 / RFU, NDUFAF7 / Fold change vs veh, NDUFAF7 / RFU, SLC12A2 / Fold change vs veh, SLC12A2 / RFU, IBTK / Fold change vs veh, IBTK / RFU, ESF1 / Fold change vs veh, ESF1 / Fold change vs veh, TMEM50B / RFU, TAOK1 / Fold change vs veh, TAOK1 / RFU, ACBD3 / Fold change vs veh, ACBD3 / RFU, TMA16 / Fold change vs veh, TMA16 / RFU, RWDD3 / Fold change vs veh, RWDD3 / RFU, BCAT1 / Fold change vs veh, BCAT1 / RFU, EDEM3 / Fold change vs veh, EDEM3 / RFU, TMEM33 / Fold change vs veh, TMEM33 / RFU, WDR75 / Fold change vs veh, WDR75 / RFU, AHCTF1 / Fold change vs veh, AHCTF1 / RFU, TFRC / Fold change vs veh, TFRC / RFU, ZDHHC17 / Fold change vs veh, ZDHHC17 / RFU, NOM1 / Fold change vs veh, NOM1 / RFU, ARL8B / Fold change vs veh, ARL8B / RFU, ZBTB11 / Fold change vs veh, ZBTB11 / RFU, TAMM41 / Fold change vs veh, TAMM41 / RFU, KIAA1704 /// LOC100996395 / Fold change vs veh, KIAA1704 /// LOC100996395 / RFU, ING1 / Fold change vs veh, ING1 / RFU, TRMT61B / Fold change vs veh, TRMT61B / RFU, FUBP3 / Fold change vs veh, FUBP3 / RFU, TP53 / Fold change vs veh, TP53 / RFU, TNKS2 / Fold change vs veh, TNKS2 / RFU, ZFP14 / Fold change vs veh, ZFP14 / RFU, ACTR2 / Fold change vs veh, ACTR2 / RFU, PPP3R1 / Fold change vs veh, PPP3R1 / RFU, PIK3R1 / Fold change vs veh, PIK3R1 / RFU, HNRNPA1 / Fold change vs veh, HNRNPA1 / RFU, RNF170 / Fold change vs veh, RNF170 / RFU, ZNF28 / Fold change vs veh, ZNF28 / RFU, RNGTT / Fold change vs veh, RNGTT / RFU, OGT / Fold change vs veh, OGT / RFU, BRD1 / Fold change vs veh, BRD1 / RFU, MARS / Fold change vs veh, MARS / RFU, ZNF655 / Fold change vs veh, ZNF655 / RFU, FAHD1 / Fold change vs veh, FAHD1 / RFU, BDP1 / Fold change vs veh, BDP1 / RFU, LRRCC1 / Fold change vs veh, LRRCC1 / RFU, ARID1A / Fold change vs veh, ARID1A / RFU, ZNF146 / Fold change vs veh, ZNF146 / RFU, ZNF330 / Fold change vs veh, ZNF330 / RFU, GPN3 / Fold change vs veh, GPN3 / RFU, C9orf123 / Fold change vs veh, C9orf123 / RFU, N4BP2L2 / Fold change vs veh, N4BP2L2 / RFU, ARFIP1 / Fold change vs veh, ARFIP1 / RFU, FAM179B / Fold change vs veh, FAM179B / RFU, BCL10 / Fold change vs veh, BCL10 / RFU, UHRF1BP1L / Fold change vs veh, UHRF1BP1L / RFU, BET1 / Fold change vs veh, BET1 / RFU, CNOT2 / Fold change vs veh, CNOT2 / RFU, ZNF268 / Fold change vs veh, ZNF268 / Fold change vs veh, ZNF507 / RFU, DGCR2 / Fold change vs veh, DGCR2 / RFU, WDSUB1 / Fold change vs veh, WDSUB1 / Fold change vs veh, HSP90B1 /// MIR3652 / RFU, ADSS / Fold change vs veh, ADSS / RFU, GK / Fold change vs veh, GK / RFU, ZNF148 / Fold change vs veh, ZNF148 / RFU, TAF9 / Fold change vs veh, TAF9 / RFU, SLC1A5 / Fold change vs veh, SLC1A5 / RFU, SLMO2 / Fold change vs veh, SLMO2 / RFU, ABCC4 / Fold change vs veh, ABCC4 / RFU, LOC101060439 /// RAP1B / Fold change vs veh, LOC101060439 /// RAP1B / RFU, RFX7 / Fold change vs veh, RFX7 / RFU, GTPBP10 / Fold change vs veh, GTPBP10 / RFU, CNEP1R1 / Fold change vs veh, CNEP1R1 / RFU, BIVM-ERCC5 /// ERCC5 / Fold change vs veh, BIVM-ERCC5 /// ERCC5 / RFU, ILF3 / Fold change vs veh, ILF3 / RFU 11762660_at / Fold change /veh 11762660_at / RFU VCAN (11757783_s_at) / Fold change /veh VCAN (11757783_s_at) / RFU DDX43 (11728927_at) / Fold change /veh DDX43 (11728927_at) / RFU KRT8 (11758188_x_at) / Fold change /veh KRT8 (11758188_x_at) / RFU NKD1 (11759106_at) / Fold change /veh NKD1 (11759106_at) / RFU SRD5A1 (11742802_a_at) / Fold change /veh SRD5A1 (11742802_a_at) / RFU TPSAB1 /// TPSB2 (11721975_s_at) / Fold change /veh TPSAB1 /// TPSB2 (11721975_s_at) / RFU GSTM3 (11746129_a_at) / Fold change /veh GSTM3 (11746129_a_at) / RFU IL23R (11737362_x_at) / Fold change /veh IL23R (11737362_x_at) / RFU TMEM51 (11727254_a_at) / Fold change /veh TMEM51 (11727254_a_at) / RFU PIWIL2 (11732686_x_at) / Fold change /veh PIWIL2 (11732686_x_at) / RFU ORM1 (11744905_x_at) / Fold change /veh ORM1 (11744905_x_at) / RFU CCDC152 (11743942_at) / Fold change /veh CCDC152 (11743942_at) / RFU ECM1 (11717891_a_at) / Fold change /veh ECM1 (11717891_a_at) / RFU IL23R (11748794_a_at) / Fold change /veh IL23R (11748794_a_at) / RFU TNFAIP8L3 (11732012_x_at) / Fold change /veh TNFAIP8L3 (11732012_x_at) / RFU MBOAT4 (11741988_at) / Fold change /veh MBOAT4 (11741988_at) / RFU 11764193_at / Fold change /veh 11764193_at / RFU TMEM53 (11763286_at) / Fold change /veh TMEM53 (11763286_at) / RFU MAGEB2 (11727129_at) / Fold change /veh MAGEB2 (11727129_at) / RFU TMEM200A (11744735_a_at) / Fold change /veh TMEM200A (11744735_a_at) / RFU CCDC152 (11751479_a_at) / Fold change /veh CCDC152 (11751479_a_at) / RFU FAM211A (11726209_a_at) / Fold change /veh FAM211A (11726209_a_at) / RFU RGS16 (11746705_a_at) / Fold change /veh RGS16 (11746705_a_at) / RFU VCAN (11755009_s_at) / Fold change /veh VCAN (11755009_s_at) / RFU RHOB (11743442_s_at) / Fold change /veh RHOB (11743442_s_at) / RFU RGS16 (11720943_a_at) / Fold change /veh RGS16 (11720943_a_at) / RFU RGS16 (11720944_at) / Fold change /veh RGS16 (11720944_at) / RFU, VPS4B / Fold change vs veh, VPS4B / RFU, CREB1 / Fold change vs veh, CREB1 / RFU, DNAJC13 / Fold change vs veh, DNAJC13 / RFU, GNAQ / Fold change vs veh, GNAQ / RFU, CDK5R1 / Fold change vs veh, CDK5R1 / RFU, ZRANB3 / Fold change vs veh, ZRANB3 / RFU, CUL4A / Fold change vs veh, CUL4A / RFU, CCNY / Fold change vs veh, CCNY / RFU, UFL1 / Fold change vs veh, UFL1 / RFU, COG3 / Fold change vs veh, COG3 / RFU, DIAPH2 / Fold change vs veh, DIAPH2 / RFU, SKA2 / Fold change vs veh, SKA2 / RFU, AFF3 / Fold change vs veh, AFF3 / RFU, LMF1 / Fold change vs veh, LMF1 / RFU, IPO11 / Fold change vs veh, IPO11 / RFU, DFFB / Fold change vs veh, DFFB / RFU, FOXP1 / Fold change vs veh, FOXP1 / RFU, CARD8 / Fold change vs veh, CARD8 / RFU, STRN3 / Fold change vs veh, STRN3 / RFU, ADK / Fold change vs veh, ADK / RFU, RASSF2 / Fold change vs veh, RASSF2 / RFU, WIPF1 / Fold change vs veh, WIPF1 / RFU, LARP1B / Fold change vs veh, LARP1B / RFU, RASA1 / Fold change vs veh, RASA1 / RFU, RB1 / Fold change vs veh, RB1 / RFU, PPFIA1 / Fold change vs veh, PPFIA1 / RFU, MAT2A / Fold change vs veh, MAT2A / RFU, CCT5 / Fold change vs veh, CCT5 / RFU, WDR92 / Fold change vs veh, WDR92 / RFU, CUX1 / Fold change vs veh, CUX1 / RFU, TTC7A / Fold change vs veh, TTC7A / RFU, TMEM135 / Fold change vs veh, TMEM135 / RFU, DEPTOR / Fold change vs veh, DEPTOR / RFU, CPM / Fold change vs veh, CPM / RFU, DNAJB6 / Fold change vs veh, DNAJB6 / RFU, CACNA2D3 / Fold change vs veh, CACNA2D3 / RFU, DTX4 / Fold change vs veh, DTX4 / RFU, TFCP2 / Fold change vs veh, TFCP2 / RFU, GMCL1 /// GMCL1P1 / Fold change vs veh, GMCL1 /// GMCL1P1 / RFU, AEBP2 / Fold change vs veh, AEBP2 / RFU, SNHG1 /// SNORD22 /// SNORD25 /// SNORD26 /// SNORD27 /// SNORD28 /// SNORD29 /// SNORD31 / Fold change vs veh, SNHG1 /// SNORD22 /// SNORD25 /// SNORD26 /// SNORD27 /// SNORD28 /// SNORD29 /// SNORD31 / Fold change (Aza/veh), C12orf56 (ProbeSet 11735607_a_at) / Fold change (ACY-1035/veh), C12orf56 (ProbeSet 11735607_a_at) / Fold change (Aza/veh), FGFR1OP (ProbeSet 11751329_s_at) / Fold change (ACY-1035/veh), FGFR1OP (ProbeSet 11751329_s_at) / Fold change (Aza/veh), VPS36 (ProbeSet 11739960_a_at) / Fold change (ACY-1035/veh), VPS36 (ProbeSet 11739960_a_at) / RFU SYPL1 (11715823_x_at) / Fold change /veh SYPL1 (11715823_x_at) / RFU IGFBP7 (11715501_s_at) / Fold change /veh IGFBP7 (11715501_s_at) / RFU REEP3 (11722064_at) / Fold change /veh REEP3 (11722064_at) / RFU IGLL1 (11728026_x_at) / Fold change /veh IGLL1 (11728026_x_at): dose or concentration left out as unconfirmed", "settings": "ProbeSet 11720566_at; LIST D", "data": [{"smiles": "Nc1ccc(-c2cccs2)cc1NC(=O)c1ccc2c(c1)cc(C1CC1)n2CCN1CCOCC1", "note": "[ACY-1035]", "values": [{"measurement": "RFU, BCAT1", "value": 827.78, "unit": "RFU"}]}]}
